Source: ChEMBL document CHEMBL1134004, “Synthesis and in vitro cytotoxicity of novel long chain busulphan analogues” (Bioorg Med Chem Lett, 2001)
pIC50: −log10 of the molar value.

Assays:
Format in all cases: functional, cell-based
H322 = assay: In vitro cytotoxicity causing 50% growth inhibition was determined against H322 (human non small cell lung cancer) cells; details: NCI-H322
UMSCC22B = assay: In vitro cytotoxicity causing 50% growth inhibition was determined against 22B (human head and neck squamous) cell line
[1] = tested on: Lewis lung carcinoma cell line; assay: In vitro cytotoxicity causing 50% growth inhibition was determined against LL (murine non small cell lung cancer) cell line; details: Mus musculus
A2780 = assay: In vitro cytotoxicity causing 50% growth inhibition was determined against […] (human ovarian cancer)cell line
Colon 26 = assay: In vitro cytotoxicity causing 50% growth inhibition was determined against C26-10 (murine colon carcinoma) cell line; details: Mus musculus
WiDr = assay: In vitro cytotoxicity causing 50% growth inhibition was determined against WiDr (human colon carcinoma) cell line

Row | SMILES | pIC50 (H322) | pIC50 (UMSCC22B) | pIC50 [1] | pIC50 (A2780) | pIC50 (Colon 26) | pIC50 (WiDr)
1 | CCCCCCCCCCCCCCC(CCOS(C)(=O)=O)COS(C)(=O)=O (stereo not drawn) | 4.60 | 4.58 | 4.68 | 4.59 | 4.58 | 4.60
2 | CCCCCCCCCCCCCCC(COS(C)(=O)=O)OS(C)(=O)=O (stereo not drawn) | 4.22 | 4.33 | 4.55 | 4.34 | 4.51 | 4.59
3 | CS(=O)(=O)OCCCCOS(C)(=O)=O [BUSULFAN] | < 4.00 | < 4.00 | < 4.00 | < 4.00 | 4.03 | < 4.00
